Experimental data reported in publication PMC5096027, “Naturally Inspired Peptide Leads: Alanine Scanning Reveals an Actin‐Targeting Thiazole Analogue of Bisebromoamide” (Chembiochem, 2016).
Numbered stars: 1 amine (or outer) side, 2 acyl side, 3 side chain; on linkers, the order of the positions; unused ones are H or OH. Square brackets hold non-standard residues; d marks the D form. Peptide text beside a SMILES is read from it. * marks the point of attachment. X1 = C[C@H]1C[C@@H](c2nc(C(=O)[*:2])cs2)N([*:1])C1; Pyrrolidine(2S-propanoyl) = CCC(=O)[C@@H]1CCCN1*; dNMeTyr(3-Br) = CN[C@H](Cc1ccc(O)c(Br)c1)C(=O)O; NMeF = CN[C@@H](Cc1ccccc1)C(=O)O; Piv = CC(C)(C)C(=O)*

Key:
HCT116 cells [1] = assay: Cytoskeletal morphology assay (ImageXpress high-content imaging, F-actin/DAPI); type: cell-based, human; conditions: 1 μM, 48 h, F-actin (phalloidin) and DAPI staining
Source text: Perhaps most striking in terms of identifying a mechanism for the cytotoxicity were the morphological images collected on an ImageXpress high content microscope (Figure 2). […] The morphological changes induced by Bis1 and Bis2 are in good accord with those previously reported for the parent compound (BBA) in HeLa cells,8 and indicate that the switch from thiazoline to thiazole to facilitate the generation of these Tz‐BBA analogues by SPPS has not impaired activity.
Figure 2 HCT116 cytoskeletal morphology after treatment with 1 μM Bis1–6 for 48 h. Cells were permeabilised and fixed in paraformaldehyde prior to staining nuclei (DAPI, blue) and filamentous‐actin fibres (F‐actin; phalloidin conjugated to Alexa Fluor […], green). Images were acquired in an automated ImageXpress microXL high‐content imaging platform (Molecular Devices) with a 20× objective; images show HCT116 cell morphology for DMSO (control) and each treatment group: A) DMSO; B) cytochalasin D; C) Bis1; D) Bis2; E) Bis3 (representative also for Bis4); F) Bis 6 (representative also for Bis5).
(§1) High‐content imaging methods: Kinetic cell growth and apoptosis assays were performed with an IncuCyte ZOOM live‐cell imaging system (Essen Bioscience, Ann Arbor, MI). Cytoskeletal morphology assays were performed on an ImageXpress Micro High‐Content Analysis System (Molecular Devices, Sunnyvale, CA).
Cytoskeletal morphology assays: Cells were seeded in a 96‐well plates (5000 cells per well) and incubated for 24 h before treatment. The medium was then replaced with fresh medium containing Bis1–6 as eight‐point half‐log doses and incubated for 48 h. Control cells were incubated with DMSO (0.1 % v/v). All images were acquired on an automated ImageXpress Micro XL high‐content imaging platform (Molecular Devices) with a ×20 Plan Fluor ELWD Ph1 DM objective (Nikon) and a 16‐bit camera (binning resolution of 1). Four separate images per well were acquired by using laser‐based autofocus parameters optimised for cell plates and cell type. All immunostaining procedures were performed at room temperature in 96‐well plates (100 μL unless otherwise stated). Cells were fixed by addition of paraformaldehyde (8 % in PBS; final concentration 4 %) and incubated for 20 min. Cells were washed three times with PBS then incubated with a mixture of phalloidin conjugated to Alexa Fluor […] (Molecular Probes (Thermo Fisher) A12379; diluted 1:500) and 4′,6‐diamidino‐2‐phenylindole (DAPI; Sigma–Aldrich D8417) for 45 min in the absence of light. Cells were washed three times with PBS before imaging. Representative images are in Figure 2.

HCT116 cells [2] = assay: IncuCyte ZOOM kinetic cell growth (confluence) assay; type: cell-based, human; conditions: half-log dose response, kinetic readout every 3 h
Procedure: (§2) The effects of Bis1–6 on the growth of HCT116 cells (human colon cancer cell‐line) were assessed on an IncuCyte Zoom platform. HCT116 cells express an activating Ras mutation, and represent an aggressive and common form of human colon cancer.26 Dasatinib (dual Src‐Abl tyrosine kinase inhibitor) and DMSO (vehicle, 0.1 % v/v) were used as controls. […] The relative activity of all the analogues was further evaluated by testing each in an eight‐point half‐log dose–response assay (alamarBlue cell viability assay).
as §1
Apoptosis assay: Cells were seeded in a 96‐well plate (5000 cells per well) and incubated for 24 h before treatment. […] Apoptosis was detected with the cell‐permeable caspase biosensor NucView 488 (Biotium, Hayward, CA), which was added (1 μM) at the same time as compound. IncuCyte imaging software automatically quantifies cell density and NucView/Caspase positive objects at time points following compound addition. This provided a kinetic readout of cell growth and apoptosis induction in cells after addition of each analogue. […]

protein kinase C (PKC) = assay: Reverse phase protein array (RPPA) profiling, PKC signalling; type: cell-based, human; conditions: HCT116 cell lysates, 3.0–0.03 μM, 24 h exposure, normalised to DMSO
Source text: (§3) The only clearly discernible inhibition of pathway signalling was for protein kinase C (PKC); there was discernible reduction in total protein expression of the insulin receptor substrate protein IRS‐1 (Figure S2).
(§4) Reverse phase protein array methods: The abundance of total protein and phosphorylated protein epitopes was quantified by using a Zeptosens reverse phase protein microarray platform (Bayer Technology Services, Leverkusen, Germany) as previously described.30 Briefly, HCT116 cells were seeded (4×10^5 cells per well) in six‐well plates. Cells were pre‐incubated in treatment‐free medium for 48 h prior to addition of Bis1–3 at six‐point half‐log doses (3.0–0.03 μM) and incubation for 30 min, 3 h and 24 h. Control samples were treated with medium containing DMSO (0.1 % v/v). The medium was then removed, and the cells were lysed by incubation with CLB1 buffer (Zeptosens) for 30 min. Cell lysates were normalised to a uniform protein concentration with CSBL1 spotting buffer (Zeptosens) prior to preparing a final fourfold concentration series of ([…] mL^−1). The concentration series of each sample was printed onto ZeptoChip protein microarray chips (Zeptosens) under controlled conditions (50 % humidity, 14 °C) by using a Nano‐Plotter NP21/E non‐contact printer (GeSIM, Radeberg, Germany). Single droplets (400 pL) were deposited onto the chips. A reference grid (four columns, 22 rows) of Alexa Fluor 647‐conjugated BSA (Invitrogen) was spotted onto each sub‐array; samples were spotted between reference columns. […] Microarray images representing the longest exposure without saturation of the fluorescence signal were automatically selected for analysis in ZeptoView 3.1 software. A weighted linear‐fit through the fourfold concentration series was used to calculate relative fluorescence intensity (RFI). […]
(§5) Figure S2. […] The mechanism-of-action of Tz-BBA analogues Bis1-3 at the post translational pathway level was evaluated against a panel of 62 protein and phospho-protein analytes by reverse phase protein array (RPPA). […]

IRS‐1 = assay: Reverse phase protein array (RPPA) profiling, IRS-1 total protein expression; type: cell-based, human; conditions: HCT116 cell lysates, 3.0–0.03 μM, 24 h exposure, normalised to DMSO
Source text: as §3, §4, §5

HCT116 cells [3] = assay: alamarBlue cell viability assay; type: cell-based, human; conditions: 72 h incubation, eight-point half-log doses 0.003–10 μM, alamarBlue fluorescence, relative to DMSO control, n=3
Procedure: as §2
Figure 1 HCT116 cell viability. Dose–response curves determined by an alamarBlue cell viability assay after incubation with Bis1–6 (0.003–10 μM) for 72 h. Conversion of the alamarBlue reagent to the activated fluorescent resorufin cell viability indicator was calculated for DMSO (vehicle) and compound‐treated samples. Viability is expressed relative to control (DMSO). Dose–response plots are mean±SD (n=3).
Cell viability assay: HCT116 cells were seeded in a 96‐well plate (5000 cells per well) and incubated for 48 h before treatment. The medium (DMEM with 10 % foetal calf serum and 2 mM glutamine) was replaced with fresh medium containing each of Bis1–6 as eight‐point half‐log doses, and incubated for 3 days. alamarBlue (Invitrogen) cell viability reagent (10 % v/v) was added, and the plate was incubated for 1 h. Fluorescence was detected with an EnVision multilabel reader (λ ex=540 nm, λ em=590 nm; PerkinElmer). All data were normalised to DMSO‐treated cells, and curves were fitted in GraphPad Prism with a sigmoidal variable‐slope curve.

ERK = tested on: ERK; design: method as in PMID 19803465; conditions: NRK cells; cited from earlier work
HeLa S3 cells = tested on: HeLa S3 cells; design: method as in PMID 19803465; conditions: cited from earlier work
ERK and Akt = tested on: ERK and Akt; design: method as in PMID 24133625; conditions: two renal cancer cell lines; cited from earlier work
actin‐filament = tested on: actin‐filament; design: method as in PMID 21322638; conditions: cited from earlier work
[4] = tested on: panel of 39 human cancer cell lines; design: method as in PMID 19803465; conditions: cited from earlier work

## CCC(=O)[C@@H]1CCCN1C(=O)[C@H](Cc1ccccc1)N(C)C(=O)[C@@H](CC(C)C)NC(=O)c1csc([C@@H]2C[C@H](C)CN2C(=O)[C@@H](Cc2ccc(O)c(Br)c2)N(C)C(=O)[C@H](C)NC(=O)C(C)(C)C)n1 [Bis1, thiazole‐bisebromoamide] (Piv-A[dNMeTyr(3-Br)][X1][dL][NMeF]-{Pyrrolidine(2S-propanoyl)})
HCT116 cells [1]
  cytoskeletal morphological changes relative to DMSO control: clear disruption and aggregation of F‐actin filaments together with reduced cell‐substrate adhesion
HCT116 cells [2]
  repression of cell growth (confluence): most active
Protein kinase C (PKC)
  PKC pathway signalling (RPPA): reduced activity of PKC
IRS‐1
  total protein expression of IRS-1 (RPPA): reduced expression of IRS‐1

## CC(C)C[C@@H](NC(=O)c1csc([C@@H]2C[C@H](C)CN2C(=O)[C@@H](Cc2ccc(O)c(Br)c2)N(C)C(=O)[C@H](C)NC(=O)C(C)(C)C)n1)C(=O)N(C)[C@@H](Cc1ccccc1)C(=O)N[C@@H](C)C(N)=O [Bis2] (Piv-A[dNMeTyr(3-Br)][X1][dL][NMeF]A-NH2)
HCT116 cells [1]
  cytoskeletal morphological changes relative to DMSO control: clear disruption and aggregation of F‐actin filaments together with reduced cell‐substrate adhesion
Protein kinase C (PKC)
  PKC pathway signalling (RPPA): reduced activity of PKC
HCT116 cells [3]
  EC50: 71 nM
IRS‐1
  total protein expression of IRS-1 (RPPA): reduced expression of IRS‐1

## CCC(=O)[C@@H]1CCCN1C(=O)[C@H](C)NC(=O)[C@@H](CC(C)C)NC(=O)c1csc([C@@H]2C[C@H](C)CN2C(=O)[C@@H](Cc2ccc(O)c(Br)c2)N(C)C(=O)[C@H](C)NC(=O)C(C)(C)C)n1 [Bis3] (Piv-A[dNMeTyr(3-Br)][X1][dL]A-{Pyrrolidine(2S-propanoyl)})
HCT116 cells [1]
  cytoskeletal morphological changes relative to DMSO control: more elongated cells with prominent F‐actin filaments and promotion of cell‐substrate adhesion
Protein kinase C (PKC)
  PKC pathway signalling (RPPA): more affected by Bis1 and Bis2 than by Bis3
HCT116 cells [3]
  EC50: 483 nM
IRS‐1
  total protein expression of IRS-1 (RPPA): more affected by Bis1 and Bis2 than by Bis3

## CCC(=O)[C@@H]1CCCN1C(=O)[C@H](Cc1ccccc1)N(C)C(=O)[C@H](C)NC(=O)c1csc([C@@H]2C[C@H](C)CN2C(=O)[C@@H](Cc2ccc(O)c(Br)c2)N(C)C(=O)[C@H](C)NC(=O)C(C)(C)C)n1 [Bis4] (Piv-A[dNMeTyr(3-Br)][X1]A[NMeF]-{Pyrrolidine(2S-propanoyl)})
HCT116 cells [1]
  cytoskeletal morphological changes relative to DMSO control: more elongated cells with prominent F‐actin filaments and promotion of cell‐substrate adhesion
HCT116 cells [3]
  EC50: 178 nM

## bisebromoamide [BBA]
ERK
  phosphorylation of ERK: inhibited
HeLa S3 cells
  IC50 against HeLa S3 cells: 0.04 µg/mL
ERK and Akt
  phosphorylation of both ERK and Akt: inhibited
actin‐filament
  action on actin filaments: actin‐filament stabiliser
[4]
  GI50: 40 nM
